Measured values: patent US8536354B2, “Steroidal ligands and their use in gene switch modulation” (Intrexon Corporation, priority 2008, dated 2013)
Substitutions are numbered along the chain they refer to. Like-named read-outs stand apart in the source and are kept apart here.

Key:
[1] = biological target: T1, wild-type Choristoneura fumiferana EcR (CfEcR-DEF) (Choristoneura fumiferana, UniProt O77255); assay: Two-hybrid gene switch assay, wild-type CfEcR-DEF (GAL4-EcR / VP16-RXR-USP chimera, luciferase) in NIH3T3 cells; details: for Emax: NIH3T3, 48 h, read-out: rel max FI (diacylhydrazine), CF
T1 sequence (O77255 219-541): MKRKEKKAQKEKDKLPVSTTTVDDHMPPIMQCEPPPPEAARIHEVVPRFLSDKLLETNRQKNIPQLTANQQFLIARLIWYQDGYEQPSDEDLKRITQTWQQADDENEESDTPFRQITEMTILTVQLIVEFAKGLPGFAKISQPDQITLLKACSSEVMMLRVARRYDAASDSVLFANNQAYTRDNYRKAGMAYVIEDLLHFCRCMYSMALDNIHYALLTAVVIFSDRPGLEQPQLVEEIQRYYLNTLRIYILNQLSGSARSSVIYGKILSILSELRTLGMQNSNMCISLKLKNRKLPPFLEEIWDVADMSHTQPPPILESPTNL
T1 sequence (P28702 299-449 partner): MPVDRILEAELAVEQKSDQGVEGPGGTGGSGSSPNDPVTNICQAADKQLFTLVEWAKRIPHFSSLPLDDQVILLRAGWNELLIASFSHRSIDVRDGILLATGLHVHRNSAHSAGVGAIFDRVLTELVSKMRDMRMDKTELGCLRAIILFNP

[2] = biological target: wild-type Drosophila melanogaster EcR (DmEcR; GAL4-EcR DEF with VP16-RXR-USP chimera) (Drosophila melanogaster, UniProt P34021); assay: Two-hybrid gene switch assay, luciferase reporter, wild-type DmEcR, mouse NIH3T3 cells; assay type: cell-based
wild-type Drosophila melanogaster EcR (DmEcR; GAL4-EcR DEF with VP16-RXR-USP chimera), sequence (P34021 with tags, fused parts or gaps limits assumed): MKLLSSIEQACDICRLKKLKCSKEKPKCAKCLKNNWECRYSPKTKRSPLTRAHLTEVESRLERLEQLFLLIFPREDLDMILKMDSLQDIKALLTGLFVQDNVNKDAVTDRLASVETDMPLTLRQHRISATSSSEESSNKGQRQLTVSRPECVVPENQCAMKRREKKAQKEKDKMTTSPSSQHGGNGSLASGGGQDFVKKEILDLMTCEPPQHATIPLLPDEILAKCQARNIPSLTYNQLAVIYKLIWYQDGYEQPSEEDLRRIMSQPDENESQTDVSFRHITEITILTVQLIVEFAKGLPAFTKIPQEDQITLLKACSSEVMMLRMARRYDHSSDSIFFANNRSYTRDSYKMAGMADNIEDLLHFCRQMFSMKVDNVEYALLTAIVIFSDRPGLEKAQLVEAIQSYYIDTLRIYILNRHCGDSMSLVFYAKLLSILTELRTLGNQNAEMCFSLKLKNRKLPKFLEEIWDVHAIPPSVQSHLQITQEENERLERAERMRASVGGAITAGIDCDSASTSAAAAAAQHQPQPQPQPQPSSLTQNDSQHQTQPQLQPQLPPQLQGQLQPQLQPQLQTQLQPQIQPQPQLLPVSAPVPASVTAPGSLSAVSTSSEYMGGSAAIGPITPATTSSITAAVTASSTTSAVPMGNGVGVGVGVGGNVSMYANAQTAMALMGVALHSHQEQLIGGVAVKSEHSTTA

[3] = biological target: T2, wild-type CfEcR (GAL4-CfEcR-DEF with VP16-RXR-USP chimera) (Choristoneura fumiferana, UniProt O77255); assay: Two-hybrid gene switch assay, luciferase reporter, wild-type CfEcR, mouse NIH3T3 cells
T2 sequence (O77255 219-541): T1 sequence (O77255 219-541) with E230A
T2 sequence (P28702 1-533 partner): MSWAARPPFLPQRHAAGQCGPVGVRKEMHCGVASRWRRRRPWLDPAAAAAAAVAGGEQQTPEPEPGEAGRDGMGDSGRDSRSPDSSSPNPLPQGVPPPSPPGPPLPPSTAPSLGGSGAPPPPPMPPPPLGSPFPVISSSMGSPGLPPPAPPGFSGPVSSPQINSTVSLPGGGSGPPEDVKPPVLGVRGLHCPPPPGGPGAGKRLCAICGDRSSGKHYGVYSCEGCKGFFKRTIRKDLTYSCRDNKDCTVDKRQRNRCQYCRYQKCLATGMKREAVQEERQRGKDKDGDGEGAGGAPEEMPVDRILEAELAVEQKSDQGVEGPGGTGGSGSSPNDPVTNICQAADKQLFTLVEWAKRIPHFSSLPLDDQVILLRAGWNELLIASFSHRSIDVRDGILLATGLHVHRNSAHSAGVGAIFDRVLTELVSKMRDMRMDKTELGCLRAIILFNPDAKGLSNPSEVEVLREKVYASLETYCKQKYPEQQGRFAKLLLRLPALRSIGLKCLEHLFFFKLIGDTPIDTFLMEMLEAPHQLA

[4] = biological target: wild-type Aedes aegypti EcR (AaEcR; GAL4-EcR DEF with VP16-RXR-USP chimera) (Aedes aegypti, UniProt P49880); assay: Two-hybrid gene switch assay, luciferase reporter, wild-type AaEcR, mouse NIH3T3 cells; assay type: cell-based
wild-type Aedes aegypti EcR (AaEcR; GAL4-EcR DEF with VP16-RXR-USP chimera), sequence (P49880 with tags, fused parts or gaps limits assumed, change not shown): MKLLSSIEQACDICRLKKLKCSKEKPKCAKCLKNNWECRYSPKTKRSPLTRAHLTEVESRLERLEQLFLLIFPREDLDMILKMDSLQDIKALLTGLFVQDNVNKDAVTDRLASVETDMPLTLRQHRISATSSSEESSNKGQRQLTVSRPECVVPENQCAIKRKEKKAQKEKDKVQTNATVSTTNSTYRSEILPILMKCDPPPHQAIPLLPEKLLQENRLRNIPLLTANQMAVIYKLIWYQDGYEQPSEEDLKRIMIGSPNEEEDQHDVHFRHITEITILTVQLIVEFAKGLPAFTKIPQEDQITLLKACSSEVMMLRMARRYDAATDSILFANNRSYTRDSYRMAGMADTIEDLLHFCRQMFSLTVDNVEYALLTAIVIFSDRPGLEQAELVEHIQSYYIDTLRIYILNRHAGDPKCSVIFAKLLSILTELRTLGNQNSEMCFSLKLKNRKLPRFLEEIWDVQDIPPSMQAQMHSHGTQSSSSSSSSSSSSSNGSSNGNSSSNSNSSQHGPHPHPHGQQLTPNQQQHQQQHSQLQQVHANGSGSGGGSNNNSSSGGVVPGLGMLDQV

[5] = biological target: T3, BaEcR (GAL4-EcR DEF with VP16-RXR-USP chimera) (Bemisia tabaci, UniProt A0A6M3RDR8); assay: Two-hybrid gene switch assay, luciferase reporter, BaEcR, mouse NIH3T3 cells; details: EC50, FIG. 14A/14B, GAL4-EcR(DEF) with VP16-RXR-USP chimera
T3 sequence (A0A6M3RDR8 115-530): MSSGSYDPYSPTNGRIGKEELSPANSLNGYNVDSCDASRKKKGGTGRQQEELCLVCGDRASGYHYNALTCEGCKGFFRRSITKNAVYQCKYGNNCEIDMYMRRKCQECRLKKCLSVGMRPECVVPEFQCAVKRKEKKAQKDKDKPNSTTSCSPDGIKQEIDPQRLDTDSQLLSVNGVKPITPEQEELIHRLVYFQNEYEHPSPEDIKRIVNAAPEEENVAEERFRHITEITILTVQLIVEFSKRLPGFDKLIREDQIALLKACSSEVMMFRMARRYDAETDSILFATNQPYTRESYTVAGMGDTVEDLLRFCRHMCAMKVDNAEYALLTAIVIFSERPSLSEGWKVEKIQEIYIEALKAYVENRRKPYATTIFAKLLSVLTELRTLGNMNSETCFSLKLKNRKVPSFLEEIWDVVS
T3 sequence (P28702 1-533 partner): T2 sequence (P28702 1-533 partner)

[6] = biological target: T4, TmEcR (GAL4-EcR DEF with VP16-RXR partner) (Tenebrio molitor, UniProt O02035); assay: Two-hybrid gene switch assay, luciferase reporter, TmEcR, mouse NIH3T3 cells
T4 sequence (O02035 194-491): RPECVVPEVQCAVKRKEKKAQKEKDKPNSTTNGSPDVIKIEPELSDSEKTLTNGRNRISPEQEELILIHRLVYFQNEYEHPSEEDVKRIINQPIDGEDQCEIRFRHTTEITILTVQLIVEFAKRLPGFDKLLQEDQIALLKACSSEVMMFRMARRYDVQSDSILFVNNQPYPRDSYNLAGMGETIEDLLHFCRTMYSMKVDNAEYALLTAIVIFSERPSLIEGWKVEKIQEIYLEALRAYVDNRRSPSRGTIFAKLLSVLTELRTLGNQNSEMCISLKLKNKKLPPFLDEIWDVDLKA
T4 sequence (P28704 1-520 partner): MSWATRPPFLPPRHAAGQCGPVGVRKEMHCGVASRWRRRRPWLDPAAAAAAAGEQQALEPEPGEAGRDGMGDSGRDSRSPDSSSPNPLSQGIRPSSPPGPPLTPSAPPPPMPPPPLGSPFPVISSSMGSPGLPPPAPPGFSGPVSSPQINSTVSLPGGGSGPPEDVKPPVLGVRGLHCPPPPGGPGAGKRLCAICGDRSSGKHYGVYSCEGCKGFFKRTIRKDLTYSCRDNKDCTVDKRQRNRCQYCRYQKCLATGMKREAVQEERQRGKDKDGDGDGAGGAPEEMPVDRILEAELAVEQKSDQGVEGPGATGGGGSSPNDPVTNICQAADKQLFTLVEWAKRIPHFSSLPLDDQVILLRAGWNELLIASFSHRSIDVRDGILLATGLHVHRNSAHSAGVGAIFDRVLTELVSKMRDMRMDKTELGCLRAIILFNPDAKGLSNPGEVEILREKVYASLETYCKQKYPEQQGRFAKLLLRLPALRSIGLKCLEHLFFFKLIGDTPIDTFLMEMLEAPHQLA

[7] = biological target: T5, MsEcR (GAL4-EcR DEF with VP16-RXR-USP chimera) (Manduca sexta, UniProt P49883); assay: Two-hybrid gene switch assay, luciferase reporter, MsEcR, mouse NIH3T3 cells; details: EC50, FIG. 15, GAL4-EcR (DEF) / VP16-RXR-USP chimera
T5 sequence (P49883 1-556): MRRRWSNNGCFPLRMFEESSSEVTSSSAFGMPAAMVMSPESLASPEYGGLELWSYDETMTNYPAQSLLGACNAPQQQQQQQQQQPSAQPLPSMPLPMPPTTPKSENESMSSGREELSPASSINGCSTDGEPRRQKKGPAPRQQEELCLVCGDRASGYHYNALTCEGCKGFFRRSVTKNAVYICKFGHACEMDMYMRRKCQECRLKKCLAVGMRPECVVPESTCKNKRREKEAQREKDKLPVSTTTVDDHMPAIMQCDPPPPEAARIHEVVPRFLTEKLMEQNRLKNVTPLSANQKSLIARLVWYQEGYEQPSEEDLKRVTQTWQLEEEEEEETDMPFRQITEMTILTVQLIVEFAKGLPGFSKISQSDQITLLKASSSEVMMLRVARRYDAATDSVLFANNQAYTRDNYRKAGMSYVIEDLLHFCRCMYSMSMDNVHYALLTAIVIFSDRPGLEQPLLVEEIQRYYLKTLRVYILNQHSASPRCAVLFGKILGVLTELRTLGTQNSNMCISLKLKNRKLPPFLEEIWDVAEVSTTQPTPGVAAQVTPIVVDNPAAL
T5 sequence (P28702 1-533 partner): T2 sequence (P28702 1-533 partner)

## CCO[C@H](CCC(C)(C)O)[C@](C)(O)C1CC[C@@]2(O)C3=CC(=O)C4C[C@@H](O)[C@@H](O)CC4(C)C3CCC12C (stereo partly shown) [20E-22-ethyl ether]
[1]
  Emax: 77%

## CCCO[C@H](CCC(C)(C)O)[C@](C)(O)C1CC[C@@]2(O)C3=CC(=O)C4C[C@@H](O)[C@@H](O)CC4(C)C3CCC12C (stereo partly shown) [20E-22-n-propyl ether]
[1]
  EC50: > 33 µM
  Emax: 0.5%

## COC(C)(C)CCC(O)C(C)(O)C1CCC2(O)C3=CC(=O)C4CC(O)C(O)CC4(C)C3CCC12C (stereo not shown) [20E-25-methyl ether]
[1]
  EC50: > 33 µM
  Emax: 0.13%

## C=CCO[C@H](CCC(C)(C)O)[C@](C)(O)C1CC[C@@]2(O)C3=CC(=O)C4C[C@@H](O)[C@@H](O)CC4(C)C3CCC12C (stereo partly shown) [Compound 7]
[2]; EC50, FIG. 8
  EC50: ~5 µM
[3]
  EC50: > 33 µM

## CCCCO[C@H](CCC(C)(C)O)[C@](C)(O)C1CC[C@@]2(O)C3=CC(=O)C4C[C@@H](O)[C@@H](O)CC4(C)C3CCC12C (stereo partly shown) [Compound 8]
[2]; EC50, FIG. 8
  EC50: 14.6 µM
[4]; FIG. 8, read-out: EC50
  EC50: 2.72 µM
[3]
  EC50: > 33 µM

## CC(C)(O)CC[C@@H](OCc1ccccc1)[C@](C)(O)C1CC[C@@]2(O)C3=CC(=O)C4C[C@@H](O)[C@@H](O)CC4(C)C3CCC12C (stereo partly shown) [Compound 9]
[3]
  EC50: > 33 µM

## COC(C)(C)CC[C@@H](O)[C@](C)(O)[C@H]1CC[C@@]2(O)C3=CC(=O)[C@@H]4C[C@@H](O)[C@@H](O)C[C@]4(C)[C@H]3CC[C@]12C [Compound 10]
[2]; EC50, FIG. 8
  EC50: 5.45 µM
[4]; EC50, FIG. 8
  EC50: ~0.3 µM

## CO[C@H](CCC(C)(C)OC)[C@](C)(O)[C@H]1CC[C@@]2(O)C3=CC(=O)[C@@H]4C[C@@H](O)[C@@H](O)C[C@]4(C)[C@H]3CC[C@]12C [Compound 14]
[2]; EC50, FIG. 8
  EC50: 1.58 µM
[3]
  EC50: > 33 µM

## CO[C@H]1CC2(C)C(C[C@H]1OC)C(=O)C=C1C2CCC2(C)C([C@@](C)(O)[C@@H](CCC(C)(C)O)OC)CC[C@@]12OC (stereo partly shown) [Compound 15]
[3]
  EC50: > 33 µM

## CO[C@@]12CC[C@H]([C@@](C)(O)[C@H](O)CCC(C)C)[C@@]1(C)CC[C@H]1C2=CC(=O)[C@@H]2C[C@@H](O)[C@@H](O)C[C@@]21C [Compound 17]
[3]
  EC50: ~20 µM

## CO[C@H]1C[C@@]2(C)[C@@H](C[C@H]1O)C(=O)C=C1[C@@H]2CC[C@]2(C)[C@@H]([C@@](C)(O)[C@@H](CCC(C)C)OC)CC[C@@]12O [Compound 19]
[3]
  EC50: 27.8 µM

## CO[C@H](CCC(C)C)[C@](C)(O)[C@H]1CC[C@@]2(OC)C3=CC(=O)[C@@H]4C[C@@H](O)[C@@H](O)C[C@]4(C)[C@H]3CC[C@]12C [Compound 21]
[3]
  EC50: > 33 µM

## CO[C@H](CCC(C)C)[C@](C)(O)C1CC[C@@]2(O)C3=CC(=O)C4C[C@@H](O)[C@@H](O)CC4(C)C3=CCC12C (stereo partly shown) [Compound 22]
[3]
  EC50: 13.7 µM

## CC(C(O)CCC(C)(C)O)C1CCC2(O)C3=CC(=O)C4CC(O)C(O)CC4(C)C3CCC12C (stereo not shown) [Compound 24]
[3]
  EC50: > 33 µM

## CC(C)(O)CC[C@@H](O)[C@](C)(O)[C@H]1CC[C@@]2(O)C3=CC(=O)[C@@H]4C[C@@H](O)[C@@H](O)C[C@]4(C)[C@H]3CC[C@]12C [Compound 25]
[4]; FIG. 8, read-out: EC50
  EC50: 0.93 µM

## CC(C)CCC(O)C(C)(O)C1CCC2(O)C3=CC(=O)C4(O)CC(O)C(O)CC4(C)C3C(O)CC12C (stereo not shown) [Compound 28]
[2]; EC50, FIG. 8
  EC50: 0.112 µM

## CC(C)CC[C@@H](O)[C@](C)(O)[C@H]1CC[C@@]2(O)C3=CC(=O)[C@@H]4C[C@@H](O)[C@@H](O)C[C@]4(C)[C@H]3CC[C@]12C [PoA, ponasterone A, reference compound]
[5]
  EC50: 0.031 µM
[6]; EC50, FIG. 14A/14B, GAL4-EcR(DEF)
  EC50: 0.044 µM
[6]; EC50, FIG. 16, GAL4-EcR (DEF)
  EC50: 0.07 µM
[2]; EC50, FIG. 4C
  EC50: 0.113 µM
[2]; EC50, FIG. 16, GAL4-EcR (DEF) / VP16-RXR-USP chimera
  EC50: 0.84 µM
[3]
  EC50: 8.42 µM
[7]
  EC50: 0.17 µM

## CC(C)(O)CC[C@@H](O)[C@](C)(O)[C@H]1CC[C@@]2(O)C3=CC(=O)[C@]4(O)C[C@@H](O)[C@@H](O)C[C@]4(C)[C@H]3CC[C@]12C [polypodine B, reference compound]
[1]; wt-CfEcR gene switch, NIH3T3, Example One
  EC50: ~12 µM
